Experimental data as given in patent US10450306B2, “Isoxazole analogs as FXR agonists and methods of use thereof” (Enanta Pharmaceuticals, Inc., priority 2016, dated 2019).

Molecular target: T1, human FXR (NR1H4) (Homo sapiens, UniProt Q96RI1)
T1 construct: host or cells: CHO (Chinese hamster ovary) reporter cells
T1 sequence (Q96RI1 1-486): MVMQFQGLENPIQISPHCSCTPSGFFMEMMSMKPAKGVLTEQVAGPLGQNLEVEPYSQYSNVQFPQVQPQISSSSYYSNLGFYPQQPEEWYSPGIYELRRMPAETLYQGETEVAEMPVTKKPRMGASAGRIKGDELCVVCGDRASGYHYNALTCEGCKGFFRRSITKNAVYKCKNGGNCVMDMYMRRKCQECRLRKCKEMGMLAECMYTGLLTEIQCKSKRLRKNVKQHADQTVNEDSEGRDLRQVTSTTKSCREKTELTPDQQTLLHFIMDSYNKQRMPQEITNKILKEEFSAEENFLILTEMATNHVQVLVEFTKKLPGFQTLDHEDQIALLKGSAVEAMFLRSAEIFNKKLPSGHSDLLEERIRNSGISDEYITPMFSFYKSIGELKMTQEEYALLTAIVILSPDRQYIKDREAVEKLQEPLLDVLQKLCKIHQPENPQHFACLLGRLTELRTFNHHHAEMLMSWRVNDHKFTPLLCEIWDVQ
Experiment: Human FXR (NR1H4) Assay: Gal4 promoter driven luciferase reporter transactivation in CHO cells (Indigo Bioscience kit IB00601); for Efficacy (%): efficacy normalized to CDCA set as 100%
Type: cell-based
Settings: for Emax: CHO, read-out: Efficacy (%); for EC50: Human FXR (NR1H4) reporter assay, potency ranges
Excerpt: Human FXR (NR1H4) Assay Determination of a ligand mediated Gal4 promoter driven transactivation to quantify ligand binding mediated activation of FXR. FXR Reporter Assay kit purchased from Indigo Bioscience (Catalogue number: IB00601) to determine the potency and efficacy of compound developed by Enanta that can induce FXR activation. The principle application of this reporter assay system is to quantify functional activity of human FXR. The assay utilizes non-human mammalian cells, CHO (Chinese hamster ovary) cells engineered to express human NR1H4 protein (referred to as FXR). Reporter cells also incorporate the cDNA encoding beetle luciferase which catalyzes the substrates and yields photon emission. Luminescence intensity of the reaction is quantified using a plate-reading luminometer, Envision. Reporter Cells include the luciferase reporter gene functionally linked to an FXR responsive promoter. Thus, quantifying changes in luciferase expression in the treated reporter cells provides a sensitive surrogate measure of the changes in FXR activity. […] The assay is according to the manufacturer's instructions. In brief, the assay was performed in white, 96 well plates using final volume of 100 ul containing cells with different doses of compounds. Retrieve Reporter Cells from −80° C. storage. Perform a rapid thaw of the frozen cells by transferring a 10 ml volume of 37° C. cell recovery medium into the tube of frozen cells. Recap the tube of Reporter Cells and immediately place it in a 37° C. water bath for 5-10 minutes. Retrieve the tube of Reporter Cell Suspension from the water bath. Sanitize the outside surface of the tube with a 70% alcohol swab, and then transfer it into the cell culture hood. Dispense 90 μl of cell suspension into each well of the 96-well Assay Plate. Transfer the plate into 37° C. incubator, allowing the cells adherent to the bottom of the well. Dilute compounds in Dilution Plate (DP), and administrate to cells at Assay Plate (AP). DMSO content of the samples was kept at 0.2%. Cells were incubated for additional 22 hours before luciferase activities were measured. Thirty minutes before intending to quantify FXR activity, remove Detection Substrate and Detection Buffer from the refrigerator and place them in a low-light area so that they may equilibrate to room temperature. Remove the plate's lid and discard all media contents by ejecting it into an appropriate waste container. Gently tap the inverted plate onto a clean absorbent paper towel to remove residual droplets. Cells will remain tightly adhered to well bottoms. Add 100 ul of luciferase detection reagent to each well of the assay plate. Allow the assay plate to rest at room temperature for at least 5 minutes following the addition of LDR. Set the instrument (Envision) to perform a single 5 second “plate shake” prior to reading the first assay well. Read time may be 0.5 second (500 mSec) per well.

Row | SMILES | Emax | EC50
1 | COC(=O)c1cc(OC(F)F)c2nc(N3C4CCC3CC(NCc3c(-c5c(Cl)cccc5Cl)noc3C3CC3)C4)sc2c1 (centres unmarked) [Example 189] | 73% | 1 to 100 nM
2 | O=C(O)c1cc(OC(F)F)c2nc(N3[C@@H]4CC[C@H]3C[C@@H](NCc3c(-c5c(Cl)cccc5Cl)noc3C3CC3)C4)sc2c1 [Example 190, 2-((1R,3r,5S)-3-(((5-cyclopropyl-3-(2,6-dichlorophenyl)isoxazol-4-yl)methyl)amino)-8-azabicyclo[3.2.1]octan-8-yl)-4-(difluoromethoxy)benzo[d]thiazole-6-carboxylic acid] | 96% | < 1 nM
3 | Cc1cc2nc(N3C4CCC3CC(NCc3c(-c5c(Cl)cccc5Cl)noc3C3CC3)C4)sc2cc1C(=O)O (centres unmarked) [Example 194] | 81% | < 1 nM
4 | Cc1c(C(=O)O)ccc2nc(N3C4CCC3CC(NCc3c(-c5c(Cl)cccc5Cl)noc3C3CC3)C4)sc12 (centres unmarked) [Example 196] | 83.5% | 1 to 100 nM
5 | COC(=O)c1ccc2nc(N3C4CCC3CC(NCc3c(-c5c(Cl)cccc5Cl)noc3C3CC3)C4)c(OC)nc2c1 (centres unmarked) [Example 197] | 115% | 100 to 1000 nM
6 | COc1nc2cc(C(=O)O)ccc2nc1N1C2CCC1CC(NCc1c(-c3c(Cl)cccc3Cl)noc1C1CC1)C2 (centres unmarked) [Example 198] | 140% | 1 to 100 nM
7 | COC(=O)c1ccc2nc(N3C4CCC3CC(NCc3c(-c5c(Cl)cccc5Cl)noc3C3CC3)C4)c(Cl)nc2c1 (centres unmarked) [Example 199] | 58% | 100 to 1000 nM
8 | O=C(NCCS(=O)(=O)O)c1cc(F)c2nc(N3C4CCC3CC(NCc3c(-c5c(Cl)cccc5Cl)noc3C3CC3)C4)sc2c1 (centres unmarked) [Example 200-1] | 10% | 1 to 100 nM
9 | COC(=O)c1cc(OC(C)C)c2nc(N3CCC(NCc4c(-c5c(Cl)cccc5Cl)noc4C4CC4)CC3)sc2c1 [Example 200-3] | 35% | 100 to 1000 nM
10 | CC(C)Oc1cc(C(=O)O)cc2sc(N3CCC(NCc4c(-c5c(Cl)cccc5Cl)noc4C4CC4)CC3)nc12 [Example 200-4] | 106% | 1 to 100 nM
11 | COC(=O)c1cc(F)c2nc(N3CCC(NCc4c(-c5c(Cl)cccc5Cl)noc4C4CC4)CC3)sc2c1 [Example 200-5] | 72% | 100 to 1000 nM
12 | O=C(O)c1cc(F)c2nc(N3CCC(NCc4c(-c5c(Cl)cccc5Cl)noc4C4CC4)CC3)sc2c1 [Example 200-6] | 86.5% | 1 to 100 nM
13 | COC(=O)c1cc2sc(N3C4CCC3CC(NCc3c(-c5c(Cl)cccc5Cl)noc3C3CC3)C4)nc2cc1OC (centres unmarked) [Example 200-7] | 74.5% | 1 to 100 nM
14 | COc1cc2nc(N3C4CCC3CC(NCc3c(-c5c(Cl)cccc5Cl)noc3C3CC3)C4)sc2cc1C(=O)O (centres unmarked) [Example 200-8] | 73.5% | < 1 nM
15 | CCOc1cc(C(=O)OC)cc2sc(N3C4CCC3CC(NCc3c(-c5c(Cl)cccc5Cl)noc3C3CC3)C4)nc12 (centres unmarked) [Example 200-9] | 81% | 1 to 100 nM
16 | CCOc1cc(C(=O)O)cc2sc(N3C4CCC3CC(NCc3c(-c5c(Cl)cccc5Cl)noc3C3CC3)C4)nc12 (centres unmarked) [Example 200-10] | 92.5% | < 1 nM
17 | COc1cc(C(=O)NCC(=O)O)cc2sc(N3C4CCC3CC(NCc3c(-c5c(Cl)cccc5Cl)noc3C3CC3)C4)nc12 (centres unmarked) [Example 200-11] | 75% | 1 to 100 nM
18 | COc1cc(C(=O)NCCS(=O)(=O)O)cc2sc(N3C4CCC3CC(NCc3c(-c5c(Cl)cccc5Cl)noc3C3CC3)C4)nc12 (centres unmarked) [Example 200-12] | 16.5% | 1 to 100 nM
19 | COC(=O)c1cc(OC(C)C)c2nc(N3C4CCC3CC(NCc3c(-c5c(Cl)cccc5Cl)noc3C3CC3)C4)sc2c1 (centres unmarked) [Example 200-13] | 96% | < 1 nM
20 | CC(C)Oc1cc(C(=O)O)cc2sc(N3C4CCC3CC(NCc3c(-c5c(Cl)cccc5Cl)noc3C3CC3)C4)nc12 (centres unmarked) [Example 200-14] | 93.5% | < 1 nM

Row | SMILES | Emax | EC50
21 | COC(=O)c1cc2sc(N3C4CCC3CC(NCc3c(-c5c(Cl)cccc5Cl)noc3C3CC3)C4)nc2cc1F (centres unmarked) [Example 200-15] | 75.8% | 1 to 100 nM
22 | O=C(O)c1cc2sc(N3C4CCC3CC(NCc3c(-c5c(Cl)cccc5Cl)noc3C3CC3)C4)nc2cc1F (centres unmarked) [Example 200-16] | 109% | 1 to 100 nM
23 | COC(=O)c1cnc2nc(N3C4CCC3CC(NCc3c(-c5c(Cl)cccc5Cl)noc3C3CC3)C4)sc2n1 (centres unmarked) [Example 200-17] | 51.5% | 1 to 100 nM
24 | O=C(O)c1cnc2nc(N3C4CCC3CC(NCc3c(-c5c(Cl)cccc5Cl)noc3C3CC3)C4)sc2n1 (centres unmarked) [Example 200-18] | 91.3% | 1 to 100 nM
25 | COC(=O)c1cc2sc(N3C4CCC3CC(NCc3c(-c5c(Cl)cccc5Cl)noc3C3CC3)C4)nc2cc1Br (centres unmarked) [Example 200-19] | 50.5% | 1 to 100 nM
26 | COC(=O)c1ccc2nc(N3C4CCC3CC(NCc3c(-c5c(Cl)cccc5Cl)noc3C3CC3)C4)sc2c1Br (centres unmarked) [Example 200-21] | 58% | 1 to 100 nM
27 | COC(=O)c1cc2sc(N3C4CCC3CC(NCc3c(-c5c(Cl)cccc5Cl)noc3C3CC3)C4)nc2cc1-c1ccccc1 (centres unmarked) [Example 200-23] | 76.5% | 1 to 100 nM
28 | O=C(O)c1cc2sc(N3C4CCC3CC(NCc3c(-c5c(Cl)cccc5Cl)noc3C3CC3)C4)nc2cc1-c1ccccc1 (centres unmarked) [Example 200-24] | 96.2% | 1 to 100 nM
29 | COC(=O)c1ccc2nc(N3C4CCC3CC(NCc3c(-c5c(Cl)cccc5Cl)noc3C3CC3)C4)sc2c1-c1ccccc1 (centres unmarked) [Example 200-25] | 58.5% | 1 to 100 nM
30 | COC(=O)c1cc2sc(N3C4CCC3CC(NCc3c(-c5c(Cl)cccc5Cl)noc3C3CC3)C4)nc2c2ccccc12 (centres unmarked) [Example 200-27] | 28.3% | 1 to 100 nM
31 | O=C(O)c1cc2sc(N3C4CCC3CC(NCc3c(-c5c(Cl)cccc5Cl)noc3C3CC3)C4)nc2c2ccccc12 (centres unmarked) [Example 200-28] | 132% | < 1 nM
32 | COC(=O)c1cc(C2CC2)c2nc(N3C4CCC3CC(NCc3c(-c5c(Cl)cccc5Cl)noc3C3CC3)C4)sc2c1 (centres unmarked) [Example 200-29] | 94% | 1 to 100 nM
33 | O=C(O)c1cc(C2CC2)c2nc(N3C4CCC3CC(NCc3c(-c5c(Cl)cccc5Cl)noc3C3CC3)C4)sc2c1 (centres unmarked) [Example 200-30] | 108% | < 1 nM
34 | O=C(NS(=O)(=O)C1CC1)c1ccc2nc(N3C4CCC3CC(NCc3c(-c5c(Cl)cccc5Cl)noc3C3CC3)C4)sc2c1 (centres unmarked) [Example 201] | 282% | < 1 nM
35 | CC1(S(=O)(=O)NC(=O)c2ccc3nc(N4C5CCC4CC(NCc4c(-c6c(Cl)cccc6Cl)noc4C4CC4)C5)sc3c2)CC1 (centres unmarked) [Example 202] | 279% | < 1 nM
36 | O=C(NS(=O)(=O)N1CCCC1)c1ccc2nc(N3C4CCC3CC(NCc3c(-c5c(Cl)cccc5Cl)noc3C3CC3)C4)sc2c1 (centres unmarked) [Example 227] | 256% | < 1 nM
37 | O=C(NS(=O)(=O)N1CCCCC1)c1ccc2nc(N3C4CCC3CC(NCc3c(-c5c(Cl)cccc5Cl)noc3C3CC3)C4)sc2c1 (centres unmarked) [Example 228] | 140% | 1 to 100 nM
38 | O=C(NS(=O)(=O)C1CCCC1)c1ccc2nc(N3C4CCC3CC(NCc3c(-c5c(Cl)cccc5Cl)noc3C3CC3)C4)sc2c1 (centres unmarked) [Example 231] | 277% | < 1 nM
39 | O=C(NS(=O)(=O)N1CCOCC1)c1ccc2nc(N3C4CCC3CC(NCc3c(-c5c(Cl)cccc5Cl)noc3C3CC3)C4)sc2c1 (centres unmarked) [Example 234] | 146% | 100 to 1000 nM
40 | O=C(NS(=O)(=O)C(F)(F)F)c1ccc2nc(N3C4CCC3CC(NCc3c(-c5c(Cl)cccc5Cl)noc3C3CC3)C4)sc2c1 (centres unmarked) [Example 236] | 75% | 1 to 100 nM
